IC50 data for one molecule are collected here from ChEMBL document CHEMBL1177690, “Target-specific control of lymphoid-specific protein tyrosine phosphatase (Lyp) activity” (Bioorg Med Chem, 2010).

The assay is described as follows: Inhibition of Lyp CCPGCC mutant expressed in Escherichia coli […].

Each structure is given as a SMILES string.

`O=C(O)c1ccccc1-c1c2ccc(=O)c([As]3SCCS3)c-2oc2c([As]3SCCS3)c(O)ccc12` displayed an IC50 of 0.625 µM.

As a reminder, the IC50 is the concentration needed to halve the response being measured. A higher IC50 goes with weaker potency.
